Data as given in publication PMC9403976, “Elucidating the path to Plasmodium prolyl-tRNA synthetase inhibitors that overcome halofuginone resistance” (Nature Communications, 2022).
Several values for one entry are separate records, joined by “and”; a condition that tells them apart may be missing. Identical values can stand only once. Like-named read-outs stand apart in the source and are kept apart here.

Experiments:
[1] = system: halofuginone-induced P. falciparum (elevated proline homeostasis); test: P. falciparum ABS growth assay, SYBR Green, 72 h, halofuginone-induced parasites; assay type: cell-based, Plasmodium falciparum
Outline: (§1)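 Dd2-derived erythrocytic-stage parasites at 1% parasitemia and 1% hematocrit in RPMI + 0.5% Albumax were exposed to compounds in triplicate dose-response. Controls were 10 μM dihydroartemisinin (kill) and no-compound wells (growth). Growth was read by SYBR Green 1 fluorescence after 72 h and used to derive EC50.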

PfcProRS = biological target: T1, PfcProRS (Plasmodium falciparum, UniProt Q8I5R7); assay type: binding; details: single replicates
T1 construct: made in house; host or cells: E. coli SoluBL-21

HsProRS = HsProRS (Homo sapiens, UniProt P07814); test: TR-FRET ligand displacement assay with tracer MAT379 (CoraFluor-1-Halo and anti-His6 antibody formats); assay type: binding; set-up: made in house; host or cells: E. coli SoluBL-21; details: for TR-FRET dose-response, normalized signal (SI Fig 11): individual replicates
[2] = system: HFGR-I P. falciparum (elevated proline homeostasis and PfcProRS^L482H); test: P. falciparum ABS growth assay, SYBR Green, 72 h, HFGR-I parasites; assay type: cell-based, Plasmodium falciparum
Outline: as §1

P. falciparum Dd2-2D4 = test: P. falciparum asexual blood stage (ABS) growth assay, SYBR Green, 72 h, wild-type parasites; assay type: cell-based, Plasmodium falciparum; details: Plasmodium falciparum, DD2; SI Fig 16b; values on -log scale; read-out: ABS - Dd2-2D4 (converted)

Chain of HsProRS (P07814 996-1512): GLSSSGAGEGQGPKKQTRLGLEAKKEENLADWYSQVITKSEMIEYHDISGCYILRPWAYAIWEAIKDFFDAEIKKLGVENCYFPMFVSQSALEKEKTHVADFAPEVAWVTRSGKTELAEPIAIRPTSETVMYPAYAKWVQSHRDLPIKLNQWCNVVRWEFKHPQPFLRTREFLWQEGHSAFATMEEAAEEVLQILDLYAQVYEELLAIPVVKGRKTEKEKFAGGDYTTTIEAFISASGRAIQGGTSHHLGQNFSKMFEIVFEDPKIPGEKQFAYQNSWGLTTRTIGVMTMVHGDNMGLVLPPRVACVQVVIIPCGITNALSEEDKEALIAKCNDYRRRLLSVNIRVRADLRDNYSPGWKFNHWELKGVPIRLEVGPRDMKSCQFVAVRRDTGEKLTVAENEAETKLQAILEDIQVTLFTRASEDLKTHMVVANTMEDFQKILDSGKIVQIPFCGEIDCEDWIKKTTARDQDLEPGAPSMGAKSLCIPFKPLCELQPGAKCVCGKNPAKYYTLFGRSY
T1 sequence (Q8I5R7 249-746): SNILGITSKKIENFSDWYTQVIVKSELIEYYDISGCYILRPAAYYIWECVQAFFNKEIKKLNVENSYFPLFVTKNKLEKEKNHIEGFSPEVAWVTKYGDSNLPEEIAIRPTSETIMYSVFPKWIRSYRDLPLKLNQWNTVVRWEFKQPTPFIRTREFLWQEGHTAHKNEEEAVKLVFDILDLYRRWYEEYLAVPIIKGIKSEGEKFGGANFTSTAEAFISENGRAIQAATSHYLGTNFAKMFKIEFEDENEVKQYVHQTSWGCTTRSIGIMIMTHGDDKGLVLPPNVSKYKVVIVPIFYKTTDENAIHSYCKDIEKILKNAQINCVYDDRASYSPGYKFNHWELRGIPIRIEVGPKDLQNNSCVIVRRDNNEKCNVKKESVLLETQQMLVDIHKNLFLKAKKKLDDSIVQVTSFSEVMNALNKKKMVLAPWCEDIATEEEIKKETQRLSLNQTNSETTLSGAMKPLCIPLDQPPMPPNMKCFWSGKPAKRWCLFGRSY

Q: What does the source list for `O=C(NC1Cc2ccccc2C1)c1nccnc1NC(=O)N1CCC(CO)CC1` [compound 11]?
A: dose-response value, Replicates 1-3 (SI Fig 2e) ([1]; Log[inhibitor] (M) -5.408): 12; EC50 ([1]; Plasmodium falciparum, DD2, read-out: Dd2 (EC50 [nM]) halofuginone-induced mean): 2470 nM; dose-response signal (normalized), SI Fig 8 (PfcProRS; Log[inhibitor] (M) -5.000): 5.60E-02 and 7.55E-02 and 4.27E-02; dose-response signal (normalized), SI Fig 8 (PfcProRS; Log[inhibitor] (M) -5.301): 7.92E-02 and 2.41E-02 and 4.88E-02; dose-response signal (normalized), SI Fig 8 (PfcProRS; Log[inhibitor] (M) -5.601): 9.80E-02 and 1.87E-03 and 7.44E-02; dose-response signal (normalized), SI Fig 8 (PfcProRS; Log[inhibitor] (M) -5.904): 2.50E-01 and 1.37E-01 and 2.03E-01; dose-response signal (normalized), SI Fig 8 (PfcProRS; Log[inhibitor] (M) -6.208): 3.69E-01 and 3.33E-01 and 3.17E-01; dose-response signal (normalized), SI Fig 8 (PfcProRS; Log[inhibitor] (M) -6.509): 6.08E-01 and 6.11E-01 and 6.37E-01; dose-response signal (normalized), SI Fig 8 (PfcProRS; Log[inhibitor] (M) -6.796): 7.29E-01 and 7.94E-01 and 7.90E-01; dose-response signal (normalized), SI Fig 8 (PfcProRS; Log[inhibitor] (M) -7.108): 8.18E-01 and 8.62E-01 and 9.40E-01; dose-response signal (normalized), SI Fig 8 (PfcProRS; Log[inhibitor] (M) -7.409): 1.03E+00 and 1.01E+00 and 8.87E-01; dose-response signal (normalized), SI Fig 8 (PfcProRS; Log[inhibitor] (M) -7.710): 1.08E+00 and 9.42E-01 and 9.86E-01; dose-response signal (normalized), SI Fig 8 (PfcProRS; Log[inhibitor] (M) -8.000): 1.04E+00 and 9.91E-01 and 1.06E+00; dose-response signal (normalized), SI Fig 8 (PfcProRS; Log[inhibitor] (M) -8.301): 1.09E+00 and 1.02E+00 and 1.00E+00; dose-response signal (normalized), SI Fig 8 (PfcProRS; Log[inhibitor] (M) -8.602): 1.07E+00 and 9.31E-01 and 1.05E+00; dose-response signal (normalized), SI Fig 8 (PfcProRS; Log[inhibitor] (M) -9.000): 8.46E-01 and 1.03E+00 and 9.88E-01; dose-response signal (normalized), SI Fig 8 (PfcProRS; Log[inhibitor] (M) -9.301): 1.09E+00 and 1.13E+00 and 1.15E+00; Kd (HsProRS; HsProRS (KD [nM]) + 100 μM proline mean, + 100 μM proline): 8.42 nM; Kd (HsProRS; HsProRS (KD [nM]) mean, no added proline/ATP (-)): 265 nM; normalized TR-FRET ligand displacement signal, dose-response replicates (SI Fig 6) (HsProRS; Log[inhibitor] (M) -5.000): 7.29E-02 and 8.36E-02 and 3.81E-02; TR-FRET dose-response, normalized signal (SI Fig 11) (HsProRS; Log[inhibitor] (M) -5.000): -1.28E-03 and -3.43E-02 and 2.65E-03; normalized TR-FRET ligand displacement signal, dose-response replicates (SI Fig 6) (HsProRS; Log[inhibitor] (M) -5.301): 1.45E-01 and 1.02E-01 and 9.61E-02; TR-FRET dose-response, normalized signal (SI Fig 11) (HsProRS; Log[inhibitor] (M) -5.301): 2.77E-02 and 5.85E-02 and -1.28E-02; normalized TR-FRET ligand displacement signal, dose-response replicates (SI Fig 6) (HsProRS; Log[inhibitor] (M) -5.601): 2.34E-01 and 2.43E-01 and 2.83E-01; TR-FRET dose-response, normalized signal (SI Fig 11) (HsProRS; Log[inhibitor] (M) -5.601): 8.35E-02 and 4.98E-02 and 9.15E-02; normalized TR-FRET ligand displacement signal, dose-response replicates (SI Fig 6) (HsProRS; Log[inhibitor] (M) -5.904): 4.84E-01 and 4.37E-01 and 4.52E-01; TR-FRET dose-response, normalized signal (SI Fig 11) (HsProRS; Log[inhibitor] (M) -5.904): 2.07E-01 and 2.25E-01 and 2.22E-01; normalized TR-FRET ligand displacement signal, dose-response replicates (SI Fig 6) (HsProRS; Log[inhibitor] (M) -6.208): 6.54E-01 and 5.62E-01 and 6.80E-01; TR-FRET dose-response, normalized signal (SI Fig 11) (HsProRS; Log[inhibitor] (M) -6.208): 3.66E-01 and 3.44E-01 and 3.52E-01; normalized TR-FRET ligand displacement signal, dose-response replicates (SI Fig 6) (HsProRS; Log[inhibitor] (M) -6.509): 6.98E-01 and 7.35E-01 and 8.42E-01; TR-FRET dose-response, normalized signal (SI Fig 11) (HsProRS; Log[inhibitor] (M) -6.509): 5.64E-01 and 5.20E-01 and 5.33E-01; normalized TR-FRET ligand displacement signal, dose-response replicates (SI Fig 6) (HsProRS; Log[inhibitor] (M) -6.796): 1.06E+00 (2×) and 1.05E+00; TR-FRET dose-response, normalized signal (SI Fig 11) (HsProRS; Log[inhibitor] (M) -6.796): 7.28E-01 and 6.74E-01 and 6.24E-01; normalized TR-FRET ligand displacement signal, dose-response replicates (SI Fig 6) (HsProRS; Log[inhibitor] (M) -7.108): 8.92E-01 and 1.10E+00 and 9.75E-01; TR-FRET dose-response, normalized signal (SI Fig 11) (HsProRS; Log[inhibitor] (M) -7.108): 7.19E-01 and 7.66E-01 and 7.53E-01; normalized TR-FRET ligand displacement signal, dose-response replicates (SI Fig 6) (HsProRS; Log[inhibitor] (M) -7.409): 9.25E-01 and 9.47E-01 and 1.04E+00; TR-FRET dose-response, normalized signal (SI Fig 11) (HsProRS; Log[inhibitor] (M) -7.409): 8.67E-01 and 8.81E-01 and 8.44E-01; normalized TR-FRET ligand displacement signal, dose-response replicates (SI Fig 6) (HsProRS; Log[inhibitor] (M) -7.710): 9.81E-01 and 9.55E-01 and 9.75E-01; TR-FRET dose-response, normalized signal (SI Fig 11) (HsProRS; Log[inhibitor] (M) -7.710): 9.29E-01 and 8.46E-01 and 9.70E-01; normalized TR-FRET ligand displacement signal, dose-response replicates (SI Fig 6) (HsProRS; Log[inhibitor] (M) -8.000): 9.65E-01 and 1.05E+00 and 9.80E-01; TR-FRET dose-response, normalized signal (SI Fig 11) (HsProRS; Log[inhibitor] (M) -8.000): 9.63E-01 and 9.74E-01 and 9.23E-01; normalized TR-FRET ligand displacement signal, dose-response replicates (SI Fig 6) (HsProRS; Log[inhibitor] (M) -8.301): 1.00E+00 and 9.43E-01 and 1.07E+00; TR-FRET dose-response, normalized signal (SI Fig 11) (HsProRS; Log[inhibitor] (M) -8.301): 9.20E-01 and 9.31E-01 and 8.90E-01; normalized TR-FRET ligand displacement signal, dose-response replicates (SI Fig 6) (HsProRS; Log[inhibitor] (M) -8.602): 1.02E+00 (2×) and 9.43E-01; TR-FRET dose-response, normalized signal (SI Fig 11) (HsProRS; Log[inhibitor] (M) -8.602): 8.99E-01 and 8.64E-01 and 8.60E-01; normalized TR-FRET ligand displacement signal, dose-response replicates (SI Fig 6) (HsProRS; Log[inhibitor] (M) -9.000): 9.86E-01 and 1.02E+00 and 1.11E+00; TR-FRET dose-response, normalized signal (SI Fig 11) (HsProRS; Log[inhibitor] (M) -9.000): 9.04E-01 and 9.68E-01 and 8.68E-01; normalized TR-FRET ligand displacement signal, dose-response replicates (SI Fig 6) (HsProRS; Log[inhibitor] (M) -9.301): 1.03E+00 (2×) and 9.04E-01; TR-FRET dose-response, normalized signal (SI Fig 11) (HsProRS; Log[inhibitor] (M) -9.301): 8.86E-01 and 9.16E-01 and 9.33E-01; dose-response value, Replicates 1-3 (SI Fig 2f) ([2]; Log[inhibitor] (M) -5.000): 0; EC50 ([2]; Plasmodium falciparum, DD2, read-out: Dd2 (EC50 [nM]) HFGR1 mean): 1910 nM; EC50 (P. falciparum Dd2-2D4): 0.711 µM
